US20230114241A1, “METHODS OF TREATING EPILEPSY USING THE SAME” (Trevena, Inc., priority 2019, published 2023)

Key:
[1] = target: T1, human sphingosine-1-phosphate receptor 1 (S1P1) (Homo sapiens, UniProt P21453); assay: Inhibition of cAMP production (HTRF cAMP HiRange), S1P1 CHO-K1 cells; format: cell-based; settings: for Emax: CHO-K1, efficacy normalized to maximum efficacy of fingolimod, read-out: hS1P1 CAMP SPAN; for EC50: read-out: hS1P1 CAMP pEC50 (converted)
Summary of the method: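 Intracellular cAMP changes read by TR-FRET (HTRF HiRange, 1 h room temperature) after 30 min compound exposure at 37 °C. Cells: overnight-plated CHO-K1 stably expressing tagged human S1P1 with EA-β-arrestin2. Responses normalized to fingolimod.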
Target sequence in this assay (P21453 whole entry): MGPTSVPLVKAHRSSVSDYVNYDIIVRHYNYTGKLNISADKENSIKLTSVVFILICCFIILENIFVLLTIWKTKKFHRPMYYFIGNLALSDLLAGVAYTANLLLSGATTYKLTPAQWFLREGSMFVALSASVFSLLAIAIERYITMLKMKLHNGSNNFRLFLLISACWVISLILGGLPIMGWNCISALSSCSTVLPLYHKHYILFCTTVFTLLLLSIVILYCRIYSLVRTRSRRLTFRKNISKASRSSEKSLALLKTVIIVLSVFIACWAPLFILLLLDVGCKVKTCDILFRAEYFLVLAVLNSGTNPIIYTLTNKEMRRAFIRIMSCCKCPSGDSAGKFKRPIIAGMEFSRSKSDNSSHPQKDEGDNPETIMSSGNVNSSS

[2] = target: T1, human sphingosine-1-phosphate receptor 1 (S1P1); assay: β-Arrestin2 recruitment assay (PathHunter), S1P1 CHO-K1 cells; format: cell-based; settings: for Emax: efficacy normalized to maximum efficacy of fingolimod, read-out: hS1P1 B-arrestin2 SPAN; for EC50: β-arrestin2 recruitment, read-out: hS1P1 B-arrestin2 pEC50 (converted)
Protocol: Stable clonal Chinese hamster ovary K1 (CHO-K1) cells co-expressing EA-β-arrestin2 and the human sphingosine-1-phosphate receptor 1 (NM_001400, S1P1) with a C-terminal Prolink™ tag were purchased from DiscoverX corporation (Cat #: 93-0207C2).
Cell lines were cultured in AssayComplete™ Media 6 (DiscoverX Corporation, Cat #: 920018GF2) at 37° C. and 5% CO2 in a humidified CO2 and temperature-controlled incubator. To begin assay plating, cells were washed with Dulbecco's phosphate buffered saline (CellGro, Cat #: 21-031-CV) and lifted from the culturing flask by incubation (37° C., 5 min) with CellStripper (Cellgro, Cat #: 25-056-CI). […] Plated cells were incubated overnight at 37° C. and 5% CO2 in a humidified CO2 and temperature-controlled incubator.
Agonist-promoted β-arrestin2 recruitment to the sphingosine-1-phosphate 1 receptor was determined using the β-arrestin PathHunter® Detection kit (DiscoverX Corporation, Cat #: 93-0001). […] In cells that stably express these fusion proteins, stimulation with a cognate agonist results in the interaction of β-arrestin2 and the Prolink™-tagged GPCR. This allows the complementation of the two β-galactosidase fragments and results in the formation of a functional enzyme with β-galactosidase activity. […] Following a 60 minute incubation at 37° C. and 5% CO2 in a humidified CO2 and temperature-controlled incubator, the components of the β-arrestin PathHunter® Detection kit were added as per the manufacturer's instructions. After an hour incubation at room temperature, plates were analyzed by a BMG PheraStar microplate reader.
These values are normalized to fingolimod, a known agonist of the sphingosine-1-phosphate 1 receptor.
Target sequence in this assay (P21453 whole entry): as above
Target sequence in this assay (P32121 whole entry partner): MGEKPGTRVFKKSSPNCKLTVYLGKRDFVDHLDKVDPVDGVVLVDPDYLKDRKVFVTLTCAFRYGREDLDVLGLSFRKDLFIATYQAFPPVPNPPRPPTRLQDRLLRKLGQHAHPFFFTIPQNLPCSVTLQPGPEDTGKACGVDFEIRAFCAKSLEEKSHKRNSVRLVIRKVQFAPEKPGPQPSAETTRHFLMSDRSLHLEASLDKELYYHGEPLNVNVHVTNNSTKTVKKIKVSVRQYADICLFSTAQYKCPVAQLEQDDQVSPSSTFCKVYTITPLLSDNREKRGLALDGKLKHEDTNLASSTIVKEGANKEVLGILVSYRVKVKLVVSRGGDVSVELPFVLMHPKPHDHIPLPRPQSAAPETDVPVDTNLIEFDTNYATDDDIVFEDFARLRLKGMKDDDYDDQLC

[3] = inhibition of cAMP production, S1P1
[4] = inhibition of cAMP production, potency
[5] = CHO-K1, β-arrestin2 recruitment

| Structure (SMILES) | Emax [1] | EC50 [1, 3] | Emax ([2]; CHO-K1) | EC50 ([2]; S1P1) | Emax ([1]; inhibition of cAMP production) | EC50 [1, 4] | Emax [2, 5] | EC50 ([2]; potency) |
| --- | --- | --- | --- | --- | --- | --- | --- | --- |
| Cc1nc2cc(-c3nnc(-c4ccc(NCC(F)F)c(C#N)c4)o3)ccc2[nH]1 [Compound 561, 2-[(2,2-difluoro-ethyl)amino]-5-[5-(2-methyl-1H-1,3-benzodiazol-5-yl)-1,3,4-oxadiazol-2-yl]benzonitrile] | > 75% | < 0.316 µM | < 75% | < 10 µM | – | – | – | – |
| Cc1ccc(-c2nc(-c3ccc4c(c3)nnn4C(C)C)no2)c(C)c1 [Compound 166, 5-(2,4-dimethylphenyl)-3-(1-isopropyl-1H-benzo[d][1,2,3]triazol-5-yl)-1,2,4-oxadiazole] | – | – | – | – | < 75% | > 0.316 µM | > 75% | > 10 µM |
| CC(C)Nc1ccc(-c2nnc(-c3ccc4c(c3)C(=O)NCC4)o2)cc1C#N [Compound 638, 5-[5-(1-oxo-1,2,3,4-tetrahydroisoquinolin-7-yl)-1,3,4-oxadiazol-2-yl]-2-[(propan-2-yl)amino]benzonitrile] | < 75% | < 0.316 µM | < 75% | > 10 µM | – | – | – | – |
| CC(C)n1nnc2cc(-c3noc(-c4cccc(COc5ccccc5)c4)n3)ccc21 [Compound 23, 3-(1-isopropyl-1H-benzo[d][1,2,3]triazol-5-yl)-5-(3-(phenoxy-methyl)phenyl)-1,2,4-oxadiazole] | – | – | – | – | < 75% | > 0.316 µM | < 75% | > 10 µM |
| CC(C)n1nnc2cc(-c3nc(-c4cccnc4)no3)ccc21 [Compound 165, 1-(propan-2-yl)-5-[3-(pyridin-3-yl)-1,2,4-oxadiazol-5-yl]-1H-1,2,3-benzotriazole] | – | – | – | – | > 75% | > 0.316 µM | > 75% | > 10 µM |
| CC(C)C(c1ccccc1)c1noc(-c2ccc3c(c2)nnn3C(C)C)n1 (centres unmarked) [Compound 56, 5-[3-(2-methyl-1-phenyl-propyl)-1,2,4-oxadiazol-5-yl]-1-(propan-2-yl)-1H-1,2,3-benzotriazole] | – | – | – | – | < 75% | > 0.316 µM | < 75% | > 10 µM |
| COc1ccccc1-c1nnc(-c2ccc3c(c2)CCC(=O)N3)o1 [Compound 341, 6-[5-(2-methoxyphenyl)-1,3,4-oxadiazol-2-yl]-1,2,3,4-tetrahydro-quinolin-2-one] | – | – | – | – | < 75% | > 0.316 µM | < 75% | > 10 µM |
| CC(C)n1ccc2cc(-c3noc(-c4cccnc4)n3)ccc21 [Compound 396, 3-(1-isopropyl-1H-indol-5-yl)-5-(pyridin-3-yl)-1,2,4-oxadiazole] | < 75% | > 0.316 µM | > 75% | > 10 µM | – | – | – | – |
| CSc1ccccc1-c1nc(-c2ccc3c(c2)nnn3C(C)C)no1 [Compound 276, 3-(1-isopropyl-1H-benzo[d][1,2,3]triazol-5-yl)-5-(2-(methylthio)phenyl)-1,2,4-oxadiazole] | – | – | – | – | > 75% | < 0.316 µM | > 75% | < 10 µM |
| COc1ccccc1-c1nnc(-c2ccc3c(c2)nnn3C(C)C)s1 [Compound 144, 5-[5-(2-methoxyphenyl)-1,3,4-thiadiazol-2-yl]-1-(propan-2-yl)-1H-1,2,3-benzotriazole] | – | – | – | – | > 75% | > 0.316 µM | < 75% | < 10 µM |
| OCCCn1nnc2cc(-c3noc(-c4ccccc4Br)n3)ccc21 [Compound 24, 3-(5-(5-(2-bromophenyl)-1,2,4-oxadiazol-3-yl)-1H-benzo[d][1,2,3]triazol-1-yl)propan-1-ol] | – | – | – | – | > 75% | > 0.316 µM | < 75% | > 10 µM |
| CC(C)Nc1ccc(-c2nnc(-c3ccc4c(c3)ncn4CCO)o2)cc1C#N [Compound 574, 5-{5-[1-(2-hydroxy-ethyl)-1H-1,3-benzodiazol-5-yl]-1,3,4-oxadiazol-2-yl}-2-[(propan-2-yl)amino]benzonitrile] | > 75% | > 0.316 µM | > 75% | > 10 µM | – | – | – | – |

Next, values leading:

| Emax [1] | EC50 [1, 3] | Emax ([2]; CHO-K1) | EC50 ([2]; S1P1) | Emax ([1]; inhibition of cAMP production) | EC50 [1, 4] | Emax [2, 5] | EC50 ([2]; potency) | Structure (SMILES) |
| --- | --- | --- | --- | --- | --- | --- | --- | --- |
| > 75% | < 0.316 µM | > 75% | < 10 µM | – | – | – | – | CCC1(CC)CC(=O)c2cc(-c3nc(-c4ccc5c(c4)CC(=O)N5)no3)ccc2O1 [Compound 416, 5-(5-(2,2-diethyl-4-oxochroman-6-yl)-1,2,4-oxadiazol-3-yl)indolin-2-one] |
| – | – | – | – | < 75% | > 0.316 µM | < 75% | > 10 µM | COc1ccccc1-c1noc(-c2ccc3[nH]cnc3c2)n1 [Compound 369, 5-(1H-benzo[d]imidazol-5-yl)-3-(2-methoxy-phenyl)-1,2,4-oxadiazole] |
| > 75% | > 0.316 µM | < 75% | < 10 µM | – | – | – | – | CC1(C)Oc2ccc(-c3nc(-c4cccnc4)no3)cc2C1=O [Compound 481, 2,2-dimethyl-5-[3-(pyridin-3-yl)-1,2,4-oxadiazol-5-yl]-2,3-dihydro-1-benzofuran-3-one] |
| – | – | – | – | > 75% | > 0.316 µM | < 75% | < 10 µM | O=C1CC2(CCCC2)Oc2ccc(-c3nc(-c4cccnc4)no3)cc21 [Compound 298, 6-[3-(pyridin-3-yl)-1,2,4-oxadiazol-5-yl]-3,4-dihydrospiro[1-benzopyran-2,1′-cyclopentane]-4-one] |
| < 75% | > 0.316 µM | < 75% | > 10 µM | – | – | – | – | CCCCC1CC(=O)c2ccc(-c3nc(-c4cccnc4)no3)cc2O1 (centres unmarked) [Compound 633, 2-butyl-7-[3-(pyridin-3-yl)-1,2,4-oxadiazol-5-yl]-3,4-dihydro-2H-1-benzopyran-4-one] |
| – | – | – | – | < 75% | > 0.316 µM | < 75% | > 10 µM | Cc1ccccc1-c1noc(-c2ccc3scnc3c2)n1 [Compound 362, 5-[3-(2-methylphenyl)-1,2,4-oxadiazol-5-yl]-1,3-benzothiazole] |
| – | – | – | – | > 75% | < 0.316 µM | > 75% | < 10 µM | Cc1ccccc1-c1noc(-c2ccc3c(c2)nnn3C2CC2)n1 [Compound 171, 1-cyclopropyl-5-[3-(2-methylphenyl)-1,2,4-oxadiazol-5-yl]-1H-1,2,3-benzotriazole] |
| > 75% | < 0.316 µM | > 75% | < 10 µM | – | – | – | – | CC(C)n1ccc2cc(-c3noc(-c4ccccc4Br)n3)ccc21 [Compound 388, 5-(2-bromophenyl)-3-(1-isopropyl-1H-indol-5-yl)-1,2,4-oxadiazole] |
| – | – | – | – | > 75% | > 0.316 µM | > 75% | > 10 µM | CC(C)n1nnc2cc(-c3nc(-c4ccccc4O)no3)ccc21 [Compound 180, 2-(5-(1-isopropyl-1H-benzo[d][1,2,3]triazol-5-yl)-1,2,4-oxadiazol-3-yl)phenol] |
| > 75% | < 0.316 µM | > 75% | < 10 µM | – | – | – | – | COc1ncccc1-c1noc(-c2ccc3c(c2)nnn3C(C)C)n1 [Compound 619, 5-(1-isopropyl-1H-benzo[d][1,2,3]triazol-5-yl)-3-(2-methoxy-pyridin-3-yl)-1,2,4-oxadiazole] |
| > 75% | > 0.316 µM | < 75% | < 10 µM | – | – | – | – | CCC1(CC)CC(=O)c2cc(-c3nc(-c4cccc(OC)n4)no3)ccc2O1 [Compound 553, 2,2-diethyl-6-[3-(6-methoxypyridin-2-yl)-1,2,4-oxadiazol-5-yl]-3,4-dihydro-2H-1-benzopyran-4-one] |
| < 75% | > 0.316 µM | < 75% | > 10 µM | – | – | – | – | COc1cccc(-c2nc(-c3ccc4c(ccn4C(C)C)c3)no2)c1 [Compound 392, 3-(1-isopropyl-1H-indol-5-yl)-5-(3-methoxyphenyl)-1,2,4-oxadiazole] |
| – | – | – | – | < 75% | > 0.316 µM | < 75% | > 10 µM | O=C1CC2(CCOCC2)Oc2ccc(-c3nc(-c4ccncc4)no3)cc21 [Compound 148, 6-[3-(pyridin-4-yl)-1,2,4-oxadiazol-5-yl]-3,4-dihydrospiro [1-benzopyran-2,4′-oxane]-4-one] |
| < 75% | > 0.316 µM | < 75% | > 10 µM | – | – | – | – | O=C1CC(CO)(CO)Oc2ccc(-c3nc(-c4cccnc4)no3)cc21 [Compound 478, 2,2-bis(hydroxymethyl)-6-[3-(pyridin-3-yl)-1,2,4-oxadiazol-5-yl]-3,4-dihydro-2H-1-benzopyran-4-one] |
